Assay results reported in patent US12011452B2, “Compositions and methods for treatment of mitochondrial respiratory chain dysfunction and other mitochondrial disorders” (The Children's Hospital of Philadelphia, priority 2018, dated 2024).

Tests used:
hsp-6p::GFP [1] = assay: Mitochondrial stress (UPRmt) hsp-6p::GFP induction in dld-1 RNAi worms; format: in vivo, C. elegans; conditions: for HSP-6P::GFP: dld-1 RNAi worms, conc.: Nicotinic Acid 1 mM, Riboflavin 10 uM, Thiamine 25 mM, L-Carnitine 100 uM, Folinic Acid 10 uM, Glucose 10 uM, DCA 25 mM, Cysteamine 100 um, NAC 2.5 Mm, AICAR 500 uM, Hydralazine 200 uM, Lithium Chloride 10 mM, Cyclohexamide 2 uM, Arginine 10 mM, Taurine 800 uM, Resveratrol 50 uM, Rapamycin 2.5 nM, Probucol 5 uM, Lipoic Acid 10 uM, Vitamin E 250 uM
Procedure: (§1) Brood size analysis—Worms were synchronized by picking ten to fifteen N2 gravid adult worms onto NGM plates containing 0.2 mM IPTG, ampicillin and tetracycline spread with DLD-1 (LLCI.3) or L4440 bacteria and allowed to lay eggs for 2-2.5 hours. A single L4 larvae from the egg lay was placed on a 4 mm dish containing NGM and corresponding RNAi clone and allowed to lay eggs for 24 hours before being transferred to a fresh 4 mm NGM plate. Worms were transferred to fresh plates for 5 days and progeny were counted from each plate. Western blot analysis—Approximately 500 young adult worms were briefly washed with S. basal media before resuspension in 250 uL of RIPA buffer (50 mM Tris HCl, pH 8.0, 150 mM NaCl, 1.0% NP-40, 0.5% sodium deoxycholate, 1.0 mM EDTA, 0.1% SDS) containing a 1/100 dilution of Protease inhibitor cocktail (Sigma). Worms were lysed using a mechanical hand homogenizer and pestle on ice and the resulting lysate was maintained at constant agitation for 30 minutes at 4° C. Lysate was subsequently centrifuged for 20 minutes at 16,000 rpm and the supernatant was removed. Protein concentration was determined using the Pierce BCA protein assay kit. 30 ug of whole cell lysate was utilized and blots were probed with anti-LAD monoclonal antibody at a 1:7500 dilution (abcam) to detect the DLD-1 protein. As a loading control blots were additionally probed with anti-Beta tubulin (source) at a […]. Chemotaxis Assay—Chemotaxis analysis was performed as has been previously described (Haroon, S. J. of Cell Reports (2018); pmid:29562168). In brief, approximately 30 worms were collected and washed with S. basal media. Worms were placed 5 cm away from a spot containing 2 uL of 10% isoamyl alcohol dissolved in 100% ethanol and 1 uL of 10% sodium azide. After one hour distance traveled by each worm was marked and analyzed via image J. Length Analysis—A synchronized population of worms grown on L4440 and LLCI.3 RNAi clones were monitored from the L4 stage of development till day 5 of adulthood. On the day of length analysis […] Quantification of Hsp6::GFP induction—A synchronized egg lay using 15-20 Hsp6::GFP gravid young adult worms on L4440 or LLCI.3 RNAi clones was performed to induce depletion of DLD-1 protein. Day 1 young adult worms were washed once in 4-5 mL of S. basal in a 50 mL conical tube and pelleted by centrifugation at 1300×g for 1 minute. Spent S. basal was removed and worms were resuspended in a final volume of 10 mL in preparation for biosorter analysis. An excitation wavelength of 488 nm and emission filter of 510 nm was utilized to measure induction of Hsp6::GFP induction in individual worms. Experiments were conducted with approximately 300 worms per sample with three biological replicates for each condition tested.
(§2) DLD depletion in C. elegans was achieved by feeding wild-type (N2 Bristol) worms E. coli expressing a dsRNA targeting DLD-1 messenger RNA. Brood size, survival, activity, growth (length), DLD-1 expression, and mitochondrial unfolded protein response (UPR^mt) were quantified in the resulting DLD-1^−/− animals. High throughput semi-automated analyses of animal growth (length) and mitochondrial stress response (UPR^mt) were also measured in day 1 adult worm populations using the COPAS Biosorter (Union Biometrica).
(§3) Therapeutic impact on DLD-1^−/− C. elegans UPR^mt induction and growth (length), as well as DLDH−/− zebrafish survival, liver morphology, and swimming behavior were tested for 5 therapies, including a PDH activator (dichloroacetate, DCA), PDH cofactors (thiamine, riboflavin, lipoic acid), and a lipid lowering drug that functions as a signaling modifier to inhibit mTORCI and activate AMPK and PPAR (probucol).

[2] = tested on: DLD-1 deficient (did-1 RNAi) C. elegans; assay: Animal size (length) of DLD-1 deficient (dld-1 RNAi) worms, COPAS Biosorter; format: in vivo; conditions: for Size: dld-1 RNAi worms, conc.: Nicotinic Acid 1 mM, Riboflavin 10 uM, Thiamine 25 mM, L-Carnitine 100 uM, Folinic Acid 10 uM, Glucose 10 uM, DCA 25 mM, Cysteamine 100 um, NAC 2.5 Mm, AICAR 500 uM, Hydralazine 200 uM, Lithium Chloride 10 mM, Cyclohexamide 2 uM, Arginine 10 mM, Taurine 800 uM, Resveratrol 50 uM, Rapamycin 2.5 nM, Probucol 5 uM, Lipoic Acid 10 uM, Vitamin E 250 uM; for increase in worm growth (length): DLD-1 RNAi worms treated from birth, 50 μM Riboflavin, 25 mM Thiamine, adult day 1
Procedure: RNAi feeding—DLD-1 RNAi clone (LLC1.3) was obtained from the Ahringer RNAi collection and was sequence confirmed prior to use. The vector L4440 was utilized as a control.
as §1, §2, §3

dldh−/− zebrafish = assay: dldh-/- zebrafish larvae: liver size and survival; format: in vivo; conditions: 10 μM lipoic acid; for decrease in liver size / liver disease compared to untreated DLDH−/− larvae: treatment from 2 dpf, 5 μM Probucol, 8 dpf
Procedure: FIGS. 20A-20B: Treatment of zebrafish larvae from 2 dpf with 10 μM lipoic acid and 5 μM Probucol. (FIG. 20A) Images were taken of larvae at 8 dpf and liver area was measured using Image J. P<0.05. (FIG. 20B) Survival analysis. Death was defined by absence of heartbeat.
C. elegans dld-1+/− heterozygous mutant worms display hallmarks of mitochondrial dysfunction such as decreased lifespan and activity. (FIGS. 12A, 12B), although this is likely attributed to their balancer chromosomal mutation (unc) since homozygosity for DLD knockout is lethal in C. elegans. While we have employed a previously identified C. elegans mutant, RNAi can also be employed to characterize variable to complete gene knockout mutants. DLDH deletion zebrafish mutants lacking a portion of exon 1 were generated using CRISPR/Cas9 gene editing via microinjection at the 1-cell stage. (FIG. 13). Animal viability, organ development, swim behavior, DLD-1 protein expression, and electron transport chain enzyme activity analyses were evaluated in DLDH mutant relative to AB (wild-type) zebrafish. Liver physiology was studied by Oil Red 0 staining and transmission electron microscopy. […] Control and dldh CRISPR injected Zebrafish Larvae lateral viewed at 1.6× magnification are shown in FIG. 14A. dldh−/− larvae show swollen liver and deflated swim bladder compared to wild-type controls at 8 dpf. FIG. 14B. Survival analysis comparing control and dldh−/− zebrafish, N=30 larvae for each group. Death was defined by absence of a heartbeat. FIGS. 14C and 14D show protection from rotenone induced Complex I dysfunction using the three component composition comprising NAC, NA and glucose.
as §3

SURF1-del1−/− zebrafish [3] = assay: SURF1 knockout zebrafish pre-treatment before NaN3 exposure: brain death, startle response; format: in vivo
Source text: The phenotypes assessed can include without limitation, swimming activity or swimming fatigue, organ structural impairment or dysfunction gray brain alterations in mitochondrial physiology (=brain death) (FIG. 36C), heart rate, startle (tap) response (stimulus on plate), and touch response (stimulus on animal).

[4] = adults; cited from earlier work
gas-1(fc21) C. elegans = assay: Lifespan of gas-1(fc21) Complex I NDUFS2 mutant worms; format: in vivo; conditions: administered at development (L1); previous studies in applicant's lab
hsp-6p::GFP [5] = assay: UPRmt in K09A9.5 (gas-1) knockdown hsp-6p::gfp reporter worms; format: in vivo, C. elegans; conditions: 10 mM Glu, 2.5 mM NAC, 1 mM Nicotinic acid
Procedure: UPRmt in C. elegans is assessed using a GFP reporter for hsp-6.

gas-1(fc21) worms = assay: Mitochondrial physiology (TMRE, MitoSOX, MitoTracker Green) in gas-1(fc21) worms; format: in vivo, C. elegans; conditions: 24 hour treatment
Procedure: Mitochondrial oxidant burden (MitoSOX Red), membrane potential (tetramethylrhodamine ethyl ester, TMRE), and mitochondrial content (MitoTracker Green FM, MTG) were performed in C. elegans at 20° C. using in vivo terminal pharyngeal bulb relative fluorescence microscopic quantitation. […] Simultaneously with the drug treatments, worms were treated with either 10 μM MitoSOX Red (matrix oxidant burden), 100 nM TMRE (mitochondrial membrane potential), or 2 μM MitoTracker Green FM (mitochondria content) for 24 h. The next day, worms were transferred with a pick onto 35 mm agar plates spread with OP50 E. coli without dye for 1 h to allow clearing of residual dye from the gut. Worms were then paralyzed in situ with 5 mg/ml levamisole. Photographs were taken in a darkened room at 160× magnification with a Cool Snap cf2 camera (Nikon, Melville, N.Y.). A CY3 fluorescence cube set (MZFLIII, Leica, Bannockburn, IL) was used for MitoSOX and TMRE. […] Fluorescence data for each strain were normalized to its same day control to account for day-to-day variation. […] The significance of the difference in the mean fluorescence intensity between strains under different experimental conditions was assessed by mixed-effect ANOVA, which analyzes potential batch effect due to samples being experimentally prepared, processed, and analyzed on different days by including a batch random effect in the model. […]

SURF1-del1−/− zebrafish [6] = conditions: 6-7 dpf
[7] = pre-treated from 5 dpf, 45 μM NaN3 from 6 dpf, assessed 7 dpf

CO[C@H]1C[C@@H]2CC[C@@H](C)[C@@](O)(O2)C(=O)C(=O)N2CCCC[C@H]2C(=O)O[C@H]([C@H](C)C[C@@H]2CC[C@@H](O)[C@H](OC)C2)CC(=O)[C@H](C)/C=C(\C)[C@@H](O)[C@@H](OC)C(=O)[C@H](C)C[C@H](C)/C=C/C=C/C=C/1C [Rapamycin]
HSP-6P::GFP (hsp-6p::GFP [1]): No Effect | Size [2]: No Effect

O=C(O)CCCC[C@@H]1CCSS1 (racemic) [Lipoic Acid]
HSP-6P::GFP (hsp-6p::GFP [1]): Increase | Size [2]: No Effect | extension of animal survival (dldh−/− zebrafish; pre-treatment from 2 dpf): 3 days | decrease in liver size / liver disease compared to untreated DLDH−/− larvae (dldh−/− zebrafish): 58%

NCCS [Cysteamine]
HSP-6P::GFP (hsp-6p::GFP [1]): No Effect | Size [2]: No Effect

Nc1nc(=O)c2c([nH]1)NCC(CNc1ccc(C(=O)N[C@@H](CCC(=O)O)C(=O)O)cc1)N2C=O (mixture of isomers) [Folinic Acid]
HSP-6P::GFP (hsp-6p::GFP [1]): Increase | Size [2]: No Effect

NCCS(=O)(=O)O [Taurine]
HSP-6P::GFP (hsp-6p::GFP [1]): Decrease | Size [2]: Increase

Cc1cc2nc3c(=O)[nH]c(=O)nc-3n(C[C@H](O)[C@H](O)[C@H](O)CO)c2cc1C [Riboflavin]
HSP-6P::GFP (hsp-6p::GFP [1]): Increase | increase in worm growth (length) [2]: 33% | Size [2]: Increase

Cc1ncc(C[n+]2csc(CCO)c2C)c(N)n1 [Thiamine]
HSP-6P::GFP (hsp-6p::GFP [1]): Decrease | reduction of UPRmt (HSP6::GFP fluorescence) relative to untreated DLD-1−/− worms (hsp-6p::GFP [1]; treatment from early development, 25 mM DCA, 25 mM Thiamine, adult day 1): 18% | increase in worm growth (length) [2]: 16% | Size [2]: Increase

NCCS.O=C(O)C(O)C(O)C(=O)O (centres unmarked) [cysteamine bitartrate]
brain death from NaN3 exposure (SURF1-del1−/− zebrafish [3]; [7]): prevented | neuromuscular dysfunction (startle response) from NaN3 exposure (SURF1-del1−/− zebrafish [3]; [7]): prevented

NNc1nncc2ccccc12 [Hydralazine]
HSP-6P::GFP (hsp-6p::GFP [1]): No Effect

CC(C)(Sc1cc(C(C)(C)C)c(O)c(C(C)(C)C)c1)Sc1cc(C(C)(C)C)c(O)c(C(C)(C)C)c1 [Probucol]
HSP-6P::GFP (hsp-6p::GFP [1]): No Effect | Size [2]: No Effect | decrease in liver size / liver disease compared to untreated DLDH−/− larvae (dldh−/− zebrafish): 49%

N=C(N)NCCC[C@H](N)C(=O)O [Arginine]
HSP-6P::GFP (hsp-6p::GFP [1]): Increase | Size [2]: No Effect

NC(=O)c1cccnc1 [Nicotinamide]
dose that may be toxic to the liver [4]: exceeding 3 g/day

[Cl-].[Li+] [Lithium Chloride]
HSP-6P::GFP (hsp-6p::GFP [1]): Decrease | Size [2]: No Effect

C[N+](C)(C)C[C@H](O)CC(=O)[O-] [L-Carnitine]
HSP-6P::GFP (hsp-6p::GFP [1]): No Effect | Size [2]: No Effect

Oc1ccc(C=Cc2cc(O)cc(O)c2)cc1 [Resveratrol]
HSP-6P::GFP (hsp-6p::GFP [1]): Increase | rescue of short lifespan of gas-1(fc21) to wild type N2 levels by individual compounds (gas-1(fc21) C. elegans): partially or fully rescue | Size [2]: Increase

NC(=O)c1ncn([C@@H]2O[C@H](CO)[C@@H](O)[C@H]2O)c1N [AICAR]
HSP-6P::GFP (hsp-6p::GFP [1]): Decrease | Size [2]: No Effect

O=C(O)c1cccnc1 [Nicotinic Acid, Nicotinic acid]
effect on sodium azide treated (stressor) brains of surf1 KO zebrafish (SURF1-del1−/− zebrafish [3]; FIG. 36D): protective effects | UPRmt stress response (hsp-6p::gfp fluorescence) (hsp-6p::GFP [5]): no effect | HSP-6P::GFP (hsp-6p::GFP [1]): No Effect | effect on mitochondrial oxidant burden (gas-1(fc21) worms): significantly reduces | rescue of short lifespan of gas-1(fc21) to wild type N2 levels by individual compounds (gas-1(fc21) C. elegans): partially or fully rescue | Size [2]: No Effect

Vitamin E
HSP-6P::GFP (hsp-6p::GFP [1]): Increase | Size [2]: No Effect

[N-]=[N+]=[N-] [NaN3, Sodium Azide]
NaN3 concentration of brain death onset (SURF1-del1−/− zebrafish [6]): 40 µM | NaN3 concentration with complete penetrance of brain death (SURF1-del1−/− zebrafish [6]): 50 µM | azide concentration at which bradycardia and reduced startle response start (SURF1-del1−/− zebrafish [6]): 40 µM | azide concentration giving reduced heartrate and neuromuscular (startle) response (Wild-type zebrafish; 6-7 dpf): 100 µM | NaN3 concentration at which brain death develops (Wild-type zebrafish; exposure from 6 dpf, by 7 dpf): 100 µM | NaN3 concentration with complete penetrance of brain death phenotype (Wild-type zebrafish; exposure from 6 dpf, by 7 dpf): 150 µM

C[C@@H]1C[C@@H]([C@H](O)CC2CC(=O)NC(=O)C2)C(=O)[C@@H](C)C1 [Cyclohexamide]
HSP-6P::GFP (hsp-6p::GFP [1]): Increase | Size [2]: No Effect
